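The concentration for 50% growth inhibition is given as GI50. TGI: concentration producing complete growth inhibition.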
Columns and labels:
Assay in all cases: NCI anticancer screen, dose series, 384-well format
[1] = test system: 786-0 renal
[2] = test system: A498 renal
[3] = test system: A549 NSCLC
[4] = test system: ACHN renal
[5] = test system: BT-549 breast
[6] = test system: CAKI-1 renal
[7] = test system: CCRF-CEM leukemia
[8] = test system: COLO 205 colon
[9] = test system: DU-145 prostate
[10] = test system: EKVX NSCLC
[11] = test system: HCC-2998 colon
[12] = test system: HCT-116 colon
[13] = test system: HCT-15 colon
[14] = test system: HL-60(TB) leukemia
[15] = test system: HOP-62 NSCLC
[16] = test system: HOP-92 NSCLC
[17] = test system: HS 578T breast
[18] = test system: HT29 colon
[19] = test system: IGROV1 ovarian
[20] = test system: KM12 colon
[21] = test system: LOX IMVI melanoma
[22] = test system: M14 melanoma
[23] = test system: MALME-3M melanoma
[24] = test system: MCF7 breast
[25] = test system: MDA-MB-231 breast
[26] = test system: MDA-MB-435 melanoma
[27] = test system: MDA-MB-468 breast
[28] = test system: MOLT-4 leukemia
[29] = test system: NCI-H226 lung
[30] = test system: NCI-H23 lung
[31] = test system: NCI-H322M lung
[32] = test system: NCI-H460 NSCLC
[33] = test system: NCI-H522 lung
[34] = test system: NCI/ADR-RES ovarian
[35] = test system: OVCAR-3 ovarian
[36] = test system: OVCAR-4 ovarian
[37] = test system: OVCAR-5 ovarian
[38] = test system: OVCAR-8 ovarian
[39] = test system: PC-3 prostate
[40] = test system: RPMI-8226 leukemia
[41] = test system: RXF 393 renal
[42] = test system: SF-268 CNS
[43] = test system: SF-295 CNS
[44] = test system: SF-539 CNS
[45] = test system: SK-MEL-28 melanoma
[46] = test system: SK-MEL-5 melanoma
[47] = test system: SK-OV-3 ovarian
[48] = test system: SN12C renal
[49] = test system: SNB-19 CNS
[50] = test system: SNB-75 CNS
[51] = test system: SR leukemia
[52] = test system: SW-620 colon
[53] = test system: T-47D breast
[54] = test system: TK-10 renal
[55] = test system: U251 glioblastoma
[56] = test system: UACC-257 melanoma
[57] = test system: UACC-62 melanoma
[58] = test system: UO-31 renal

c1cc(CN2CCCNCCNCCCNCC2)ccc1CN1CCCNCCNCCCNCC1
GI50 [1]: > 100 µM | TGI [1]: > 100 µM | GI50 [2]: > 100 µM | TGI [2]: > 100 µM | GI50 [3]: > 100 µM | TGI [3]: > 100 µM | GI50 [4]: > 100 µM | TGI [4]: > 100 µM | GI50 [5]: > 100 µM | TGI [5]: > 100 µM | GI50 [6]: > 100 µM | TGI [6]: > 100 µM | GI50 [7]: > 100 µM | TGI [7]: > 100 µM | GI50 [8]: > 100 µM | TGI [8]: > 100 µM | GI50 [9]: > 100 µM | TGI [9]: > 100 µM | GI50 [10]: > 100 µM | TGI [10]: > 100 µM | GI50 [11]: > 100 µM | TGI [11]: > 100 µM | GI50 [12]: > 100 µM | TGI [12]: > 100 µM | GI50 [13]: > 100 µM | TGI [13]: > 100 µM | GI50 [14]: > 100 µM | TGI [14]: > 100 µM | GI50 [15]: > 100 µM | TGI [15]: > 100 µM | GI50 [16]: > 100 µM | TGI [16]: > 100 µM | GI50 [17]: > 100 µM | TGI [17]: > 100 µM | GI50 [18]: > 100 µM | TGI [18]: > 100 µM | GI50 [19]: > 100 µM | TGI [19]: > 100 µM | GI50 [20]: > 100 µM | TGI [20]: > 100 µM | GI50 [21]: > 100 µM | TGI [21]: > 100 µM | GI50 [22]: > 100 µM | TGI [22]: > 100 µM | GI50 [23]: > 100 µM | TGI [23]: > 100 µM | GI50 [24]: > 100 µM | TGI [24]: > 100 µM | GI50 [25]: > 100 µM | TGI [25]: > 100 µM | GI50 [26]: > 100 µM | TGI [26]: > 100 µM | GI50 [27]: > 100 µM | TGI [27]: > 100 µM | GI50 [28]: > 100 µM | TGI [28]: > 100 µM | GI50 [29]: > 100 µM | TGI [29]: > 100 µM | GI50 [30]: > 100 µM | TGI [30]: > 100 µM | GI50 [31]: > 100 µM | TGI [31]: > 100 µM | GI50 [32]: > 100 µM | TGI [32]: > 100 µM | GI50 [33]: > 100 µM | TGI [33]: > 100 µM | GI50 [34]: > 100 µM | TGI [34]: > 100 µM | GI50 [35]: > 100 µM | TGI [35]: > 100 µM | GI50 [36]: > 100 µM | TGI [36]: > 100 µM | GI50 [37]: > 100 µM | TGI [37]: > 100 µM | GI50 [38]: > 100 µM | TGI [38]: > 100 µM | GI50 [39]: > 100 µM | TGI [39]: > 100 µM | GI50 [40]: > 100 µM | TGI [40]: > 100 µM | GI50 [41]: > 100 µM | TGI [41]: > 100 µM | GI50 [42]: > 100 µM | TGI [42]: > 100 µM | GI50 [43]: > 100 µM | TGI [43]: > 100 µM | GI50 [44]: > 100 µM | TGI [44]: > 100 µM | GI50 [45]: > 100 µM | TGI [45]: > 100 µM | GI50 [46]: > 100 µM | TGI [46]: > 100 µM | GI50 [47]: > 100 µM | TGI [47]: > 100 µM | GI50 [48]: > 100 µM | TGI [48]: > 100 µM | GI50 [49]: > 100 µM | TGI [49]: > 100 µM | GI50 [50]: > 100 µM | TGI [50]: > 100 µM | GI50 [51]: > 100 µM | TGI [51]: > 100 µM | GI50 [52]: > 100 µM | TGI [52]: > 100 µM | GI50 [53]: > 100 µM | TGI [53]: > 100 µM | GI50 [54]: > 100 µM | TGI [54]: > 100 µM | GI50 [55]: > 100 µM | TGI [55]: > 100 µM | GI50 [56]: > 100 µM | TGI [56]: > 100 µM | GI50 [57]: > 100 µM | TGI [57]: > 100 µM | GI50 [58]: > 100 µM | TGI [58]: > 100 µM

From PubChem BioAssay (NCI)
